Experimental data published in patent US20230062119A1, “USE OF BIOMARKERS IN IDENTIFYING PATIENTS THAT WILL BE RESPONSIVE TO TREATMENT WITH A PRMT5 INHIBITOR” (Merck Sharp & Dohme LLC, priority 2019, published 2023).
Read-outs that look alike come from different tables or passages of the source.

Target: T1, Full-length (FL)-PRMT5-MEP50 enzyme complex (Homo sapiens, UniProt O14744)
T1 construct: Full-length (FL)-PRMT5-MEP50 enzyme complex (recombinant proteins from baculovirus-transfected Sf21 cells: FL-PRMT5; MW=73837 kDa and FL-MEP50; MW=38614); made in house; host or cells: baculovirus-transfected Sf21 insect cells
Assay: PRMT5-MEP50 Enzyme Methylation Assay
Type: biochemical
Conditions: 1.0 nM PRMT5-MEP50, 75 nM biotinylated peptide, 15 μM SAM
Summary of the method: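 Compound was pre-incubated 60 min at 37°C with 1.0 nM enzyme and 15 μM SAM (final) in 50 mM Bicine pH 8.0, then 75 nM biotinylated H4R3(Me1) peptide was added and reacted 150 min; twenty-point 1:2 titration from 100000 nM, 1% DMSO. Formic acid quench; SAMDI mass spectrometry measured Me1-to-Me2 conversion, EC50 by 4- or 7-parameter regression.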

[1] = one EC50: 4 parameters single site sigmoidal model, EC50 1: first value of 7 parameters biphasic model, read-out: Enzyme Methylation Assay (EC50 or EC50 1)
[2] = second EC50 of 7 parameters biphasic model, read-out: Enzyme Methylation Assay (EC50 2)

T1 sequence (O14744 whole entry): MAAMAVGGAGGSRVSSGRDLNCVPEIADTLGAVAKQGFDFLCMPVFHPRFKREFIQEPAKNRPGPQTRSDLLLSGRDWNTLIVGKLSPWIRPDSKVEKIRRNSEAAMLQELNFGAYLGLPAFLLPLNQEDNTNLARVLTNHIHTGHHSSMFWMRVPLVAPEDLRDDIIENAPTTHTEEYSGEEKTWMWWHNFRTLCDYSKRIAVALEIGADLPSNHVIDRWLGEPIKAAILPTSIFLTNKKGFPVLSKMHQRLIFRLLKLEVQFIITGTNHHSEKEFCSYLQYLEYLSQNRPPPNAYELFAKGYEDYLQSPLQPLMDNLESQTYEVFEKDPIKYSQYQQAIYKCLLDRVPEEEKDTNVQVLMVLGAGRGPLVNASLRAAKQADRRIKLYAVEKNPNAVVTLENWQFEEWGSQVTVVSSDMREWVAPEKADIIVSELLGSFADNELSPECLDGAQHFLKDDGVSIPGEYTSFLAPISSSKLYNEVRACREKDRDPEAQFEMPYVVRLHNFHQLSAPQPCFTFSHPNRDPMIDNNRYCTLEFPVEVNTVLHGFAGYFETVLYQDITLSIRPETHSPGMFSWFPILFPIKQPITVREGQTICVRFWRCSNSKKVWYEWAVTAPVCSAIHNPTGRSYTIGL
T1 sequence (Q9BQA1 whole entry partner): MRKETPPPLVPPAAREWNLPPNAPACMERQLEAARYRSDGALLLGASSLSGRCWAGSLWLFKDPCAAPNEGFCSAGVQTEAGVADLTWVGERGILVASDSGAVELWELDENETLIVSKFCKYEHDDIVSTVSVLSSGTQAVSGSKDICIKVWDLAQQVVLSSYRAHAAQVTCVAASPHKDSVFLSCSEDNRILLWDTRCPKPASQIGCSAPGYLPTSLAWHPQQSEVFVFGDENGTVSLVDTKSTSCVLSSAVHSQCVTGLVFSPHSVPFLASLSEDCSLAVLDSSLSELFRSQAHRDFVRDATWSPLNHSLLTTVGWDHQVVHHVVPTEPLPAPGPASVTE

Row | SMILES | EC50 [1] | EC50 [2]
1 | Cc1ncnc2c1ccn2[C@@H]1O[C@@H]2[C@@H](Oc3ccc4cc(Br)c(N)nc4c3)CC[C@]2(O)[C@H]1O [Example 7, (2R,3R,3aS,6S,6aR)-6-((2-amino-3-bromoquinolin-7-yl)oxy)-2-(4-methyl-7H-pyrrolo[2,3-d]pyrimidin-7-yl)hexahydro-2H-cyclopenta[b]furan-3,3a-diol] | 0.7 nM | –
2 | C[C@@]1(O)[C@@H](CCc2ccc3cc(Br)c(N)nc3c2)O[C@@H](n2ccc3c(N)ncnc32)[C@@H]1O [Example 14, (2R,3S,4R,5R)-2-(2-(2-amino-3-bromoquinolin-7-yl)ethyl)-5-(4-amino-7H-pyrrolo[2,3-d]pyrimidin-7-yl)-3-methyltetrahydrofuran-3,4-diol] | 1.3 nM | 182 nM
3 | Nc1nc2cc(C[C@@H]3CC[C@@]4(O)[C@@H]3C[C@@H](n3cc(F)c5c(N)ncnc53)[C@@H]4O)ccc2cc1Cl [Example 34, (1S,2R,3aR,4S,6aR)-4-((2-amino-3-chloroquinolin-7-yl)methyl)-2-(4-amino-5-fluoro-7H-pyrrolo[2,3-d]pyrimidin-7-yl)hexahydropentalene-1,6a(1H)-diol] | 0.3 nM | –
4 | Cc1ncnc2c1ccn2[C@@H]1C[C@@H]2[C@H](Cc3ccc4cc(F)c(N)nc4c3)CC[C@]2(O)[C@H]1O [Example 16, (1S,2R,3aR,4S,6aR)-4-((2-amino-3-fluoroquinolin-7-yl)methyl)-2-(4-methyl-7H-pyrrolo[2,3-d]pyrimidin-7-yl)hexahydropentalene-1,6a(1H)-diol] | 0.4 nM | –
5 | Nc1nc2cc(C[C@@H]3CC[C@@]4(O)[C@@H]3O[C@@H](n3cc(F)c5c(N)ncnc53)[C@@H]4O)ccc2cc1Cl [Example 68, (2R,3R,3aS,6S,6aR)-6-((2-amino-3-chloroquinolin-7-yl)methyl)-2-(4-amino-5-fluoro-7H-pyrrolo[2,3-d]pyrimidin-7-yl)hexahydro-3aH-cyclopenta[b]furan-3,3a-diol] | 0.5 nM | –
6 | Cc1ncnc2c1ccn2[C@@H]1O[C@@H]2[C@@H](Cc3ccc4cc(Br)c(N)nc4c3)OC[C@]2(O)[C@H]1O [Example 134, (2R,3R,3aS,6R,6aR)-6-((2-amino-3-bromoquinolin-7-yl)methyl)-2-(4-methyl-7H-pyrrolo[2,3-d]pyrimidin-7-yl)tetrahydrofuro[3,4-b]furan-3,3a(4H)-diol] | 3.5 nM | –
7 | Cc1ncnc2c1ccn2[C@@H]1O[C@@H]2[C@@H](Oc3ccc4cc5c(nc4c3)NCC5)CC[C@]2(O)[C@H]1O [Example 89, (2R,3R,3aS,6S,6aR)-6-((2,3-dihydro-1H-pyrrolo[2,3-b]quinolin-7-yl)oxy)-2-(4-methyl-7H-pyrrolo[2,3-d]pyrimidin-7-yl)hexahydro-3aH-cyclopenta[b]furan-3,3a-diol] | 1.3 nM | –
8 | Cc1nc(C)c2ccn([C@@H]3O[C@@H]4[C@H](Cc5ccc6cc(F)c(N)nc6c5)CC[C@]4(O)[C@H]3O)c2n1 [Example 90, (2R,3R,3aS,6S,6aR)-6-((2-amino-3-fluoroquinolin-7-yl)methyl)-2-(2,4-dimethyl-7H-pyrrolo[2,3-d]pyrimidin-7-yl)hexahydro-3aH-cyclopenta[b]furan-3,3a-diol] | 0.9 nM | –
9 | CC(C)(O)c1ncnc2c1ccn2[C@@H]1O[C@@H]2[C@@H](Oc3ccc4cc(Br)c(N)nc4c3)CC[C@]2(O)[C@H]1O [Example 78, (2R,3R,3aS,6S,6aR)-6-[(2-amino-3-bromoquinolin-7-yl)oxy]-2-[4-(2-hydroxypropan-2-yl)-7H-pyrrolo[2,3-d]pyrimidin-7-yl]hexahydro-3aH-cyclopenta[b]furan-3,3a-diol] | 13.3 nM | –
10 | C[C@]1(O)[C@@H](O)[C@H](n2ccc3c(N)ncnc32)C[C@]1(O)CCc1ccc2cc(Br)c(N)nc2c1 [Example 118, (1R,2S,3S,4R)-1-(2-(2-amino-3-bromoquinolin-7-yl)ethyl)-4-(4-amino-7H-pyrrolo[2,3-d]pyrimidin-7-yl)-2-methylcyclopentane-1,2,3-triol] | 3.2 nM | 1590 nM
11 | Nc1ncnc2c1ccn2[C@@H]1O[C@@H]2[C@@H](Oc3ccc4cc5c(nc4c3)NCC5)CC[C@]2(O)[C@H]1O [Example 75, (2R,3R,3aS,6S,6aR)-2-(4-amino-7H-pyrrolo[2,3-d]pyrimidin-7-yl)-6-((2,3-dihydro-1H-pyrrolo[2,3-b]quinolin-7-yl)oxy)hexahydro-3aH-cyclopenta[b]furan-3,3a-diol] | 0.7 nM | –
12 | C[C@]12O[C@@H](n3ccc4c(N)ncnc43)[C@H](O)[C@@]1(O)CC[C@H]2Cc1ccc2cc(F)c(N)nc2c1 [Example 121, (2R,3R,3aS,6S,6aR)-6-((2-amino-3-fluoroquinolin-7-yl)methyl)-2-(4-amino-7H-pyrrolo[2,3-d]pyrimidin-7-yl)-6a-methylhexahydro-3aH-cyclopenta[b]furan-3,3a-diol] | 0.4 nM | –
13 | Nc1nc2cc(C[C@@H]3CC[C@@]4(O)[C@@H]3O[C@@H](n3ccc5c(N)ncnc53)[C@@H]4O)ccc2cc1C(F)(F)F [compound 76, (2R,3R,3aS,6S,6aR)-6-((2-amino-3-(trifluoromethyl)quinolin-7-yl)methyl)-2-(4-amino-7H-pyrrolo[2,3-d]pyrimidin-7-yl)hexahydro-3aH-cyclopenta[b]furan-3,3a-diol] | 0.9 nM | –
14 | Nc1nc2cc(C[C@@H]3CC[C@@]4(O)[C@@H]3O[C@@H](n3cc(F)c5c(N)ncnc53)[C@@H]4O)ccc2cc1Br [Example 108, (2R,3R,3aS,6S,6aR)-6-((2-amino-3-bromoquinolin-7-yl)methyl)-2-(4-amino-5-fluoro-7H-pyrrolo[2,3-d]pyrimidin-7-yl)hexahydro-2H-cyclopenta[b]furan-3,3a-diol] | 0.2 nM | –
15 | C[C@@]1(O)[C@@H](COc2ccc3cc(Br)c(N)nc3c2)C[C@@H](n2ccc3c(N)ncnc32)[C@@H]1O [Example 2, (1R,2S,3R,5R)-5-(((2-amino-3-bromoquinolin-7-yl)oxy)methyl)-3-(4-amino-7H-pyrrolo[2,3-d]pyrimidin-7-yl)-1-methylcyclopentane-1,2-diol] | 0.5 nM | –
16 | Cc1ncnc2c1ccn2[C@@H]1O[C@@H]2[C@H](Cc3ccc4cc(Cl)c(N)nc4c3F)CC[C@]2(O)[C@H]1O [Example 22, (2R,3R,3aS,6S,6aR)-6-[(2-amino-3-chloro-8-fluoroquinolin-7-yl)methyl]-2-(4-methyl-7H-pyrrolo[2,3-d]pyrimidin-7-yl)hexahydro-3aH-cyclopenta[b]furan-3,3a-diol] | 1 nM | –
17 | Cc1ncnc2c1ccn2[C@@H]1C[C@](C)(CCc2ccc3cc(Br)c(N)nc3c2)[C@@H](O)[C@H]1O [Example 109, (1S,2R,3S,5R)-3-(2-(2-amino-3-bromoquinolin-7-yl)ethyl)-3-methyl-5-(4-methyl-7H-pyrrolo[2,3-d]pyrimidin-7-yl)cyclopentane-1,2-diol] | 0.7 nM | –
18 | Nc1nc2c(F)c(C[C@@H]3CC[C@@]4(O)[C@@H]3O[C@@H](n3ccc5c(N)ncnc53)[C@@H]4O)ccc2cc1F [Example 20, (2R,3R,3aS,6S,6aR)-6-[(2-amino-3,8-difluoroquinolin-7-yl)methyl]-2-(4-amino-7H-pyrrolo[2,3-d]pyrimidin-7-yl)hexahydro-3aH-cyclopenta[b]furan-3,3a-diol] | 0.5 nM | –
19 | Cc1ncnc2c1ccn2[C@@H]1O[C@@H]2[C@@H](Oc3ccc4ccc(N)nc4c3)CC[C@]2(O)[C@H]1O [Example 113, (2R,3R,3aS,6S,6aR)-6-((2-aminoquinolin-7-yl)oxy)-2-(4-methyl-7H-pyrrolo[2,3-d]pyrimidin-7-Yl)hexahydro-2H-cyclopenta[b]furan-3,3a-diol] | 1.1 nM | –
20 | C[C@@]1(O)[C@@H](COc2ccc3cc(Br)c(N)nc3c2)C[C@@H](n2ccc3c(Cl)ncnc32)[C@@H]1O [Example 1, (1R,2S,3R,5R)-5-(((2-amino-3-bromoquinolin-7-yl)oxy)methyl)-3-(4-chloro-7H-pyrrolo[2,3-d]pyrimidin-7-yl)-1-methylcyclopentane-1,2-diol] | 0.5 nM | 56 nM
21 | Nc1nc2cc(C[C@@H]3CC[C@@]4(O)[C@@H]3O[C@@H](n3ccc5c(N)ncnc53)[C@@H]4O)cc(F)c2cc1Cl [Example 21, (2R,3R,3aS,6S,6aR)-6-[(2-amino-3-chloro-5-fluoroquinolin-7-yl)methyl]-2-(4-amino-7H-pyrrolo[2,3-d]pyrimidin-7-yl)hexahydro-3aH-cyclopenta[b]furan-3,3a-diol] | 0.8 nM | –
22 | Cc1nc(C)c2ccn([C@@H]3O[C@@H]4[C@@H](Oc5ccc6cc(Br)c(N)nc6c5)CC[C@]4(O)[C@H]3O)c2n1 [Example 80, (2R,3R,3aS,6S,6aR)-6-((2-amino-3-bromoquinolin-7-yl)oxy)-2-(2,4-dimethyl-7H-pyrrolo[2,3-d]pyrimidin-7-yl)hexahydro-3aH-cyclopenta[b]furan-3,3a-diol 2,2,2-trifluoroacetate] | 2.9 nM | –
23 | Cc1ncnc2c1ccn2[C@@H]1O[C@@H]2[C@@H](Oc3ccc4cc(F)c(N)nc4c3)CC[C@]2(O)[C@H]1O [Example 86, (2R,3R,3aS,6S,6aR)-6-((2-amino-3-fluoroquinolin-7-yl)oxy)-2-(4-methyl-7H-pyrrolo[2,3-d]pyrimidin-7-yl)hexahydro-3aH-cyclopenta[b]furan-3,3a-diol] | 0.5 nM | 63.8 nM
24 | Cc1ncnc2c1ccn2[C@@H]1O[C@@H]2[C@H](Cc3ccc4cc(Cl)c(N)nc4c3)CC[C@]2(O)[C@H]1O [Example 122, (2R,3R,3aS,6S,6aR)-6-((2-amino-3-chloroquinolin-7-yl)methyl)-2-(4-methyl-7H-pyrrolo[2,3-d]pyrimidin-7-yl)hexahydro-3aH-cyclopenta[b]furan-3,3a-diol] | 0.6 nM | –
